Target: T1, bovine cardiac myofibrils (Bos taurus, UniProt Q9BE39)
T1 construct: full-length cardiac myosin in the context of the native sarcomere; from tissue; host or cells: bovine cardiac left ventricular tissue, homogenized with detergent (triton X-100)
Assay: Skinned bovine cardiac myofibril ATPase assay (PK/LDH-coupled)
Format: biochemical
Conditions: inhibition of steady-state ATPase activity of bovine cardiac myofibrils, calcium at 75% activation (pCa75), PM12 buffer pH 6.8; for IC50: read-out: CDMF75 IC50
Description: To evaluate the effect of compounds on the ATPase activity of full-length cardiac myosin in the context of the native sarcomere, skinned myofibril assays were performed. Bovine cardiac myofibrils were obtained by homogenizing bovine cardiac left ventricular tissue in the presence of a detergent such as triton X-100. Such treatment removes membranes and a majority of the soluble cytoplasmic proteins but leaves intact the cardiac sarcomeric acto-myosin apparatus. Myofibril preparations retain the ability to hydrolyze ATP in an Ca^2+ regulated manner ATPase activities of such myofibril preparations in the presence and absence of compounds were assayed at Ca^2+ concentrations activating to a defined fraction of the maximal rate (i.e., 25%, 75%). Small molecule agents were assessed for their ability to inhibit the steady-state ATPase activity of bovine cardiac myofibrils using pyruvate kinase and lactate dehydrogenase (PK/LDH)-coupled enzyme system. This assay regenerates myosin-produced ADP into ATP by oxidizing NADH, producing an absorbance change at 340 nm. Prior to testing small molecule agents, the bovine cardiac myofibrils were assessed for their calcium responsiveness and the calcium concentration that achieves either a 50% (pCa50) or 75% (pCa75) activation of the myofibril system was chosen as the final condition for assessing the inhibitory activity of the small molecule agents. All enzymatic activity was measured in a buffered solution containing 12 mM PIPES (piperazine-N,N′-bis(2-ethanesulfonic acid), 2 mM magnesium chloride at pH 6.8 (PM 12 buffer). Final assay conditions were 1 mg/mL of bovine cardiac myofibrils, 4 U/mL pyruvate kinase, 6 U/mL lactate dehydrogenase, 50 μM ATP, 0.1 mg/mL BSA (bovine serum albumin), 10 ppm antifoam, 1 mM DTT, 0.5 mM NADH, 1.5 mM PEP, 0.6 mM EGTA, and an amount of CaCl2) sufficient to achieve either 50% or 75% activation of the myofibril ATPase activity. Results for compounds tested are provided in Table A. Compounds tested were prepared in accordance with the synthetic procedures described herein.

T1 sequence (Q9BE39 whole entry): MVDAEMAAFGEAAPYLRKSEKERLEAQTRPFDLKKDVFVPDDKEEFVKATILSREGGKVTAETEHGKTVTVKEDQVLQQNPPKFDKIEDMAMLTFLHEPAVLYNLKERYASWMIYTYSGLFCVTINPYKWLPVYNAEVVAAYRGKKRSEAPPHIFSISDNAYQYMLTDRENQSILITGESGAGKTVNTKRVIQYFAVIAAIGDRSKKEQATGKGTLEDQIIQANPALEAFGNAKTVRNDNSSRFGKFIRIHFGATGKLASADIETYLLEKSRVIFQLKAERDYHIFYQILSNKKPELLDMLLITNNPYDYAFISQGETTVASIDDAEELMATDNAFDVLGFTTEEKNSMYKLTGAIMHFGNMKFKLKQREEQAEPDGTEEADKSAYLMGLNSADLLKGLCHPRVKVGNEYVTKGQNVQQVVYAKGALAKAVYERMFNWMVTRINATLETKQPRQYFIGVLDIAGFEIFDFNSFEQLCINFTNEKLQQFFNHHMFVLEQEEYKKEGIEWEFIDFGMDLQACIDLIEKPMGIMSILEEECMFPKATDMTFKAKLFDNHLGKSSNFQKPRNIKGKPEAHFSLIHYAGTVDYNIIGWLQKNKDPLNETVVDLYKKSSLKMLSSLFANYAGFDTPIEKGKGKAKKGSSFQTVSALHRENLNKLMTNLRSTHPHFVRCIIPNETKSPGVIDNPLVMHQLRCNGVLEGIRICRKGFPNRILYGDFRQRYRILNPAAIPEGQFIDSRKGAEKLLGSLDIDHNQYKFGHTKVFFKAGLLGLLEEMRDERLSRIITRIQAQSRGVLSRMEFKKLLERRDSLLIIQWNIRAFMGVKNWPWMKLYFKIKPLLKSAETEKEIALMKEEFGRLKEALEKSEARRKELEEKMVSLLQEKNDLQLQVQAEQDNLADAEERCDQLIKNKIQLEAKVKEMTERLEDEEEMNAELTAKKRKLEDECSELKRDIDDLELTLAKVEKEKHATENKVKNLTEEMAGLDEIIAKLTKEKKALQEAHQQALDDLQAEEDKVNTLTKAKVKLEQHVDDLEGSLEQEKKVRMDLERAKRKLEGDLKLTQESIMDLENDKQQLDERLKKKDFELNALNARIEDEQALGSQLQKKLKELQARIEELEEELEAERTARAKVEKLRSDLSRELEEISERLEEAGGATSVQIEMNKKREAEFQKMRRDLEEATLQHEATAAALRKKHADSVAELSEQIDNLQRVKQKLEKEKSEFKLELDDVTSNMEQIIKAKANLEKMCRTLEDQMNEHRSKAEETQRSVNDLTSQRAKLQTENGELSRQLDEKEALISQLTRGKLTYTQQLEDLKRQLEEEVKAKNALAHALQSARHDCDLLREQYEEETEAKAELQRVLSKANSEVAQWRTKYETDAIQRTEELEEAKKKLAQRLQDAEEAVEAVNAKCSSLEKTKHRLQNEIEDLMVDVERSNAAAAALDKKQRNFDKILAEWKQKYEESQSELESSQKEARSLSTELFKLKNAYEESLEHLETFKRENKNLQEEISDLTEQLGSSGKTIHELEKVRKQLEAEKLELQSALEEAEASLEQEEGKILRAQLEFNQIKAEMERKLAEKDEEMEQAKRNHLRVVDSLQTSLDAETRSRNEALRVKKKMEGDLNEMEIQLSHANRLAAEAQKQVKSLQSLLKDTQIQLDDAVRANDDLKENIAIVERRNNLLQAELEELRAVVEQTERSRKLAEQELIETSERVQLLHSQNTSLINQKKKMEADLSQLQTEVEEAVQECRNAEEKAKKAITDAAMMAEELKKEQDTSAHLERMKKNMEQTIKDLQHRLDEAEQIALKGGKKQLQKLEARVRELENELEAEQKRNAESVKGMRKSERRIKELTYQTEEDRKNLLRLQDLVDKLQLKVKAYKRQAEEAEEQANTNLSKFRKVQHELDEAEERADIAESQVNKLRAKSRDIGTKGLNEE
T1 sequence (P85100 whole entry partner): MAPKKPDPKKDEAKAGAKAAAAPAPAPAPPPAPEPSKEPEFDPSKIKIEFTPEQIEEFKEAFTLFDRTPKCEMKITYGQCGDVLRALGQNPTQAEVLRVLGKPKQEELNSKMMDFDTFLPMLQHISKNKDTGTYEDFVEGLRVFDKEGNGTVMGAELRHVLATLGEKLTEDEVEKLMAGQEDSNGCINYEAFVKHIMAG
T1 sequence (Q3SZE5 whole entry partner): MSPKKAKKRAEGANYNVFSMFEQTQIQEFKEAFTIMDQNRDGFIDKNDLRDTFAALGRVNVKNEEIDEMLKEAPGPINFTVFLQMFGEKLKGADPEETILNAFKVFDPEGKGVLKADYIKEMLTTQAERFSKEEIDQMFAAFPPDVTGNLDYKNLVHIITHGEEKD

Row | CDMF75 IC15 [µM] | IC50 [µM] | SMILES
1 | >39.2 | > 39.2 | O=C1NC2(CCc3cc(-c4noc(C(F)F)n4)ccc32)CO1 (single isomer, unassigned) [Compound 38B]
2 | 0.2 | 1 | CCc1nc(-c2ccc3c(c2)OCC32COC(=O)N2)no1 (single isomer, unassigned) [Compound 41A]
3 | >39.2 | > 39.2 | CCc1nc(-c2ccc3c(c2)OCC32COC(=O)N2)no1 (single isomer, unassigned) [Compound 41B]
4 | 3.9 | 15.9 | CCc1nc(-c2ccc3c(c2)CCC3C(=O)Nc2cnn(C)c2)no1 (centres unmarked) [Compound 1, 5-(5-ethyl-1,2,4-oxadiazol-3-yl)-N-(1-methyl-1H-pyrazol-4-yl)-2,3-dihydro-1H-indene-1-carboxamide]

From US11964967B2, “Cardiac sarcomere inhibitors” (Cytokinetics, Inc., priority 2018, dated 2024)
